# Assay results published in patent publication US20060122279A1, “Hydrophobic polyamine amides as potent lipopolysaccharide sequestrants” (priority 2004, published 2006).
# Assays:
# NFκB = NFκB inhibition (LPS-induced); format: cell-based; details: in words
# Source text: A focused library of alkyl or acyl c-substituted lysine-spermine conjugates is synthesized with even carbon-numbered chains of C14 to C20 lengths. […] Furthermore, the data showhigh activity compounds are those with chain lengths between C16 and C20. […] The exemplary compounds L-Lys-ε-(stearoyl)-N^1-spermine, D-Lys-ε-(stearoyl)-N^1-spermine, L-Lys-ε-(octadecanyl)-N^1-spermine and D-Lys-ε-(octadecanyl)—N1-spermine all show high activity for the prevention of LPS-induced NFκβ cytokine release from stimulated lymphocytes. Furthermore, the exemplary compounds L-Lys-ε-(stearoyl)-N^1-spermine, D-Lys-ε-(stearoyl)-N^1-spermine, L-Lys-ε-(octadecanyl)-N^1-spermine and D-Lys-ε-(octadecanyl)-N^1-spermine all show high activity for the prevention of LPS-induced NO release from stimulated lymphocytes.
# [1] = format: binding, E. coli 0111:B4; details: E. coli 0111:B4 LPS; Tables 1-3; read-out: ED50 (half-maximal effective displacement of BC probe from LPS)
# Experimental: Polymyxin B (PMB), a peptide antibiotic known to bind and neutralize LPS^47 serves as the positive control and reference compound for every plate, enabling the quantitative assessment of repeatability and reproducibility (CV and Z′ factors) for the assay. Robotic liquid handling is performed on a Precision 2000 automated microplate pipetting system, programmed using the Precision Power software, Bio-Tek Instruments Inc., VT, USA. Stock solutions of LPS (5 mg/ml; E. coli 0111:B4; procured from Sigma) and BC (500 μM) are prepared in Tris buffer (pH 7.4, 50 mM). 1 ml each of the LPS and BC stocks are mixed and diluted in Tris buffer to a final volume of 100 ml, yielding final concentrations of 50 μg/ml of LPS and 5 μM BC. 40 μl of this BC:LPS mixture is added to each well of the plate using the Precision 2000. Fluorescence measurements are made at 25° C. on a Fluoromax-3 with Micromax Microwell 384-well plate reader, using DataMax software, Jobin Yvon Inc., N.J. The BC excitation wavelength is 580 nm, emission spectra are taken at 620 nm with both emission and excitation monochromator bandpasses set at 5 nm.
smiles,measurement,setting,value
"CCCCCCCCCCCCCCCCCC(=O)NCCCCC(N)C(=O)NCCCNCCCCNCCCN [Compound 8, D-Lys-ε-(stearoyl)-N^1-spermine]",prevention of LPS-induced NFκβ cytokine release from stimulated lymphocytes,NFκB,high activity
same,EC50,[1],8.8 µM
